Measurements reported in ChEMBL document CHEMBL6087466, “The Potential of PARP Inhibitors as Antitumor Drugs and the Perspective of Molecular Design” (J Med Chem, 2025).

Experiments:
[1] = molecular target: Poly [ADP-ribose] polymerase 1 (Homo sapiens, UniProt P09874); assay: Inhibition of PARP1 (unknown origin)
SK-OV-3 = assay: Antiproliferative activity against human SK-OV-3 cells assessed as reduction in cell growth by SRB assay; assay type: functional, cell-based

Chain of Poly [ADP-ribose] polymerase 1 (P09874 whole entry): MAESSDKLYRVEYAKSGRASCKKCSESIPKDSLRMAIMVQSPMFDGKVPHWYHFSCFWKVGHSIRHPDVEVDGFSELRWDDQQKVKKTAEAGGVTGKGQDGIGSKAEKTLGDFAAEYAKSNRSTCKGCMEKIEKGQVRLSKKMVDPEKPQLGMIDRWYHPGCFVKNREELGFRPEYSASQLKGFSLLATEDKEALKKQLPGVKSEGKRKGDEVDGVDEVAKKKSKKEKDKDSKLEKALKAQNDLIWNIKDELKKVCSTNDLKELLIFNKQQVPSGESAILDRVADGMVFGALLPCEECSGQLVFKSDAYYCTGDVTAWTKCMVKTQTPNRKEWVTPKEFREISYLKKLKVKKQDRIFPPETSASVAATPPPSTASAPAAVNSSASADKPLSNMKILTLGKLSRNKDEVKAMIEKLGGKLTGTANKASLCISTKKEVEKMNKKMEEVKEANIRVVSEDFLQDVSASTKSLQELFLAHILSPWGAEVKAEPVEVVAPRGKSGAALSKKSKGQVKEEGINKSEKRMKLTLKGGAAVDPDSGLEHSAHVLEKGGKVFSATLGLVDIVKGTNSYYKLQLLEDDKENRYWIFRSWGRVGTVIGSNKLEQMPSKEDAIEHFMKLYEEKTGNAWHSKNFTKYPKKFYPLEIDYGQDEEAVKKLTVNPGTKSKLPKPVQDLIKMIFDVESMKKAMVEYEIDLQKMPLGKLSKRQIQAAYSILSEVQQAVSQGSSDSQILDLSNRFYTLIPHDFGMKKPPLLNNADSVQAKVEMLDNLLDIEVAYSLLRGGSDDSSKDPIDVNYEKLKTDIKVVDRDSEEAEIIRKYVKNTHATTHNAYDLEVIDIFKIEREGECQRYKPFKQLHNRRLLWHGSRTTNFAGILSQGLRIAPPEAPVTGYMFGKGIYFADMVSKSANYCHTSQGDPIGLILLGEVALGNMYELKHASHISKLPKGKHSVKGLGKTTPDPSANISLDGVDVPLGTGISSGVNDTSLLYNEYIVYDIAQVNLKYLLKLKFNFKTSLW

| SMILES | IC50 [1] | IC50 (SK-OV-3) |
| --- | --- | --- |
| NC(=O)c1cccc2[nH]c(CCCCCCOc3cc(O)c4c(=O)cc(-c5ccccc5)oc4c3)nc12 | 0.093 µM |  |
| CCNC(=S)N/N=C/c1ccc(-c2nc3c(oc4ccccc43)c(=O)[nH]2)cc1 | 0.026 µM | 4.98 µM |
| N#Cc1ccc(N2CCN([C@H]3C=C(c4cc5ncccc5c(=O)[nH]4)CC3)CC2)cc1 | 0.001 µM |  |
